Read-outs that look alike come from different tables or passages of the source.
Assays:
[1] = system: SARS-COV-2 Omicron hCoV-19/USA/MD HP20874/2021 (B.1.1.529) strain; experiment: In vitro antiviral activity against SARS-COV-2 Omicron B.1.1.529 in Calu-3 cells; type: cell-based; conditions: Severe acute respiratory syndrome coronavirus 2, Calu-3, 48 h
[2] = system: hCoV-19/USA/Chicago IL/2022 (BA.5.2); experiment: In vitro antiviral activity against SARS-COV-2 BA.5.2 in Calu-3 cells; type: cell-based; conditions: Severe acute respiratory syndrome coronavirus 2, Calu-3, 48 h
in vivo [3] = conditions: monkey, crab-eating monkeys, plasma
Protocol: (§1) Oral administration: The compounds were administered with a volume ratio of Solutol:PEG400:Tween80:Saline=10:40:2:48 (v/v/v/v) at a dose of 2 mg/kg. At 0.25 h, 0.5 h, 1 h, 2 h, 4 h, 8 h, 10 h, 12 h and 24 h after drug administration, blood was serially collected from the fundus venous plexus in EP tubes containing EDTA, centrifuged at 8000 rpm/min for 5 min and then the upper layer of plasma was frozen at −80° C. and stored for LC-MS/MS analysis.
(§2) Intravenous administration: the compound was administered with 10% DMSO/30% PEG400/60% water (v/v/v) at a dose of 1 mg/kg). At 0.0833 h, 0.25 h, 0.5 h, 1 h, 2 h, 4 h, 8 h, 12 h and 24 h after drug administration, blood was serially collected from the fundic venous plexus in EP tubes containing EDTA, centrifuged at 8000 rpm/min for 5 min and then the upper layer of plasma was frozen at −80° C. and stored for LC-MS/MS analysis.
(§3) The pharmacokinetic parameters were calculated from the blood concentration-time data obtained from the tests using WinNonlin software.

in vivo [4] = conditions: rat
Protocol: as §1, with “The compound was” for “The compounds were”, “Solutol:PEG400:Tween80:Saline=10:40:2:48 […]” for “Solutol:PEG400:Tween80:Saline=10:40:2:48 (v/v/v/v)”, “of 10” for “of 2”
as §2, with “with a volume ratio of” for “with”
as §3

[5] = intravenous, 1 mg/kg, read-out: Intravenous injection AUClast
[6] = oral, 2 mg/kg, read-out: Oral AUClast

Row | Structure (SMILES) | EC50 [1] | EC50 [2] | AUC(0-t) (in vivo [3]; [5]) | AUC(0-t) (in vivo [3]; [6]) | AUC(0-t) (in vivo [4]; iv, 1 mg/kg) | AUC(0-t) (in vivo [4]; po, 10 mg/kg)
1 | Cn1cc2cc(Nc3nc(=O)n(-c4cncnc4)c(=O)n3Cc3cc(F)c(F)cc3F)c(Cl)cc2n1 [Compound 1, 6-((6-chloro-2-methyl-2H-indazol-5-yl)amino)-3-(pyrimidin-5-yl)-1-(2,4,5-trifluorobenzyl)-1,3,5-triazine-2,4(1H,3H)-dione] | 195 nM | 323 nM | – | – | – | –
2 | Cn1cc2cc(Nc3nc(=O)n(-c4cc(F)cnc4Cl)c(=O)n3Cc3cc(F)c(F)cc3F)c(Cl)cc2n1 [Compound 2] | 98 nM | 156 nM | – | – | – | –
3 | Cn1cc2cc(Nc3nc(=O)n(-c4cc(Cl)cnc4Cl)c(=O)n3Cc3cc(F)c(F)cc3F)c(Cl)cc2n1 [Compound 3] | 84 nM | 149 nM | – | – | – | –
4 | O=c1nc(Nc2cc3cn(CCO)nc3cc2Cl)n(Cc2cc(F)c(F)cc2F)c(=O)n1-c1cncc(Cl)c1 [Compound 4] | 13 nM | 18 nM | 10300 ng·h/mL | 15200 ng·h/mL | 2040 ng·h/mL | 10800 ng·h/mL
5 | [2H]C([2H])([2H])n1cc2cc(Nc3nc(=O)n(-c4cncc(Cl)c4)c(=O)n3Cc3cc(F)c(F)cc3F)c(Cl)cc2n1 [Compound 5] | 9 nM | 15 nM | 38400 ng·h/mL | 60700 ng·h/mL | 19000 ng·h/mL | 224000 ng·h/mL
6 | [2H]C([2H])([2H])n1cc2cc(Nc3nc(=O)n(-c4cncc(Cl)c4)c(=O)n3Cc3cc(F)c(F)cc3F)c(Br)cc2n1 [Compound 6] | 10 nM | 20 nM | 35700 ng·h/mL | 59000 ng·h/mL | 19500 ng·h/mL | 205000 ng·h/mL
